This note sets out measurements from patent publication US9446119B2 (priority 2011, dated 2016).

This test deals with PBMCs. Type of test: cell-based, human.
In the case of CYIFHSDYQLFSDAKA, the “S.I. (stimulation index: mean spots per well containing polypeptide/mean spots per background wells)” value was determined as 1.1.

On to LYNKPLYEVNAIITLI, for which the “S.I. (stimulation index: mean spots per well containing polypeptide/mean spots per background wells)” value came to 1. Take EVLFRLENHAETLRAA [Polypeptide 21]: the “S.I. (stimulation index: mean spots per well containing polypeptide/mean spots per background wells)” value stood at 2.5. Same read-out and setting: the same measure for DTFFRTSPMVIATTDI: 1.1. Same read-out and setting: as for DVLFRLENHAETLRAA, the figure is 0.7.

With CYILHSDYQLFSDAKA [Polypeptide 6], the “S.I. (stimulation index: mean spots per well containing polypeptide/mean spots per background wells)” value came out at 3.5 and the “number of subjects recognizing the peptide” value came to 3 subjects.

For the substance “18 (GVIFLISVIVLVCSCDGVIFLISVIVLVCSCN) [compound 18]”, the “S.I. (stimulation index: mean spots per well containing polypeptide/mean spots per background wells)” value is recorded as 2.1. Regarding KADGDDNEETLKQRLT, the “S.I. (stimulation index: mean spots per well containing polypeptide/mean spots per background wells)” value is 1. Take GVIFLISVIVLVCSCN: the “IFNγ response to the VARV version of the polypeptide” value is “detected” and the “S.I. (stimulation index: mean spots per well containing polypeptide/mean spots per background wells)” value is 2.3.
